Experiment [1] deals with E. coli MC1061 containing pGG57. The experiment is described as follows: microbe, parasite or virus in culture. In kind it is cell-based. Particulars: Escherichia coli, read-out: MIC (LD 90) of Maximally Induced tetK, pGG57. On the procedure:
(§1) E. coli MC1061 containing either pGG57, pCBSal or pGG75 were used to determine the MIC (LD 90) for tetracycline as well as six tetracycline analogs. […] MIC studies were performed in the presence of 0.01 mM IPTG for E. coli MC1061 containing pGG57. […] All of these MIC studies were done in duplicate.

Experiment [2] deals with E. coli MC1061 containing pCBSal. Description: MIC (LD 90) of maximally induced tetA (plasmid pCBSal). The class given is cell-based. The conditions noted are these: Escherichia coli, read-out: MIC (LD 90) of Maximally Induced tetA, pCBSal. As to the method:
as §1

Experiment [3] deals with E. coli MC1061 containing pGG75. The experiment is described as follows: MIC (LD 90) of maximally induced tetC (plasmid pGG75). In kind it is cell-based. Particulars: Escherichia coli, read-out: MIC (LD 90) of Maximally Induced tetC, pGG75. On the procedure: as §1
For experiment [4], the system named is strain KB3ind. In kind it is cell-based, E. coli. The conditions noted are these: for response in the Tetracycline Assay (β-galactosidase induction): strain KB3ind, plate assay (plate or liquid assay). On the procedure:
(§2) To detect tetracyclines, a plate assay is developed that is similar to one described previously (11). Cells are grown in Luria Broth (adjusted with NaOH to pH 7.5) with 25 μg/ml of kanamycin to a cell density of 0.5 absorbance units (600 nm). A 25 ml sample of the culture is harvested by centrifugation and resuspended in 1 ml of broth. The cells are mixed with 25 ml of soft agar (1%, wt/vol) and poured onto 100 ml of LB (pH 7.5)+ kanamycin, within a 22 cm^2 NUNC plate (Corning). Samples are applied by spotting from 2 to 15 μl, or by applying a disc impregnated with a compound, and the plate is incubated for 3-4 hours at 37° C. The plates are overlaid with a solution containing 13.5 mg of 6-bromo-2-naphthyl-β-D-galactopyranoside side and 86.5 mg of fast blue RR (Sigma) dissolved in 2 ml of dimethylsulfoxide, to which 25 ml of soft agar is added. β-Galactosidase is detected by the presence of a purple spot.

For experiment [5], the system named is NK5031 (λStet158-50). The experiment is described as follows: Plate assay with control strain containing the cI wild type allele. The class given is cell-based, E. coli. Particulars: 3 μl samples, up to 22.5 ng bleomycin, 150 ng mitomycin C or cinodine.
Experiment [6] has as its system tetracycline efflux pump (strain KB4 or KB5). Description: Inhibition Assay, plate assay (agar with 5 ng/ml of tetracycline). On Inhibition Assay response: key: ±: Possible positive; +: Weak positive; ++: Stronger positive; -: Negative. In kind it is cell-based, E. coli. The conditions noted are these: for Inhibition Assay response: disc on assay plate; for response in the Inhibition Assay: plate assay, 5 ng/ml of tetracycline. As to the method: as §2
Two assays are developed for detecting inhibitors of the tetA gene product (using strain KB5), or the tetK gene product (using strain KB4). In the Inhibition Assay, cells of strain KB4 or KB5 are treated as described in the tetracycline screen above, except that the agar medium contains 5 ng/ml of tetracycline. Alternatively a Liquid Assay is also developed. Cells are first grown in LB (pH 7.5). Then cells are shifted to medium containing 5 ng/ml of tetracycline, and tetracycline-containing samples are added to aliquots. Cells are then incubated and assayed as described for the Tetracycline Assay. […] However, the intracellular concentration is reduced in tetracycline resistant strains due to the action of the efflux pump, so more tetracycline would be required in the medium to accumulate sufficient tetracycline inside the cell to induce. The Inhibition Assay is designed to detect compounds that cause β-galactosidase induction in the presence of sub-inducing levels of tetracycline for a resistant strain.

Experiment [7] deals with strain KB4 or KB5. Description: Synergy Assay, plate assay (agar with 5 μg/ml of tetracycline). In kind it is cell-based, E. coli. The conditions noted are these: 5 μg/ml of tetracycline. On the procedure: Two types of assays for pump inhibitors are designed using this type of screening organism. The first is a Synergy Assay, which determines the ability of a compound or composition to kill the organism in combination with tetracycline. […] In brief, in a Synergy Assay, the screening cells are treated as described above for the tetracycline assay, except that the agar medium contains 5 μg/ml of tetracycline which is near the MIC for the strains to be used in the screen. […] Alternatively, cells are treated as described above for the tetracycline liquid assay, except that cells are shifted to a medium containing 5 μg/ml of tetracycline.
In the Synergy Assay, cells are treated as above for the plate assay, except that agar medium contains 5 μg/ml of tetracycline, near the MIC for strain KB4 or KB5. […] Alternatively, cells are treated as above for the liquid assay, except that cells are shifted to medium containing 5 μg/ml of tetracycline.

Converted amounts (≈) assume the structure as drawn. Read-outs that look alike come from different tables or passages of the source. Non-standard residues stand in square brackets, D forms with d. Residues, ends and D or L forms follow the SMILES beside them. Orn(N5-OH,N5-Ac) = CC(=O)N(O)CCC[C@H](N)C(=O)O A value given as a limit tells only on which side of the number the result lay.
Wherever Induction Assay response is given: key: ±: Possible positive; +: Weak positive; ++: Stronger positive; -: Negative.

For the molecule `CN(C)[C@@H]1C(=O)C(C(N)=O)=C(O)[C@@]2(O)C(=O)C3=C(O)c4c(O)cccc4C[C@H]3C[C@@H]12` [6-demethyl 6-deoxyTc, 6-demethyl-6-deoxytetracycline], the MIC in experiment [1] worked out at 7 µg/mL (≈ 16.9 µM); in experiment [2] it was 20 µg/mL (≈ 48.3 µM); in experiment [3], 20 µg/mL (≈ 48.3 µM). Besides, in experiment [4], the “response in the Tetracycline Assay (β-galactosidase induction)” value (“response in the Tetracycline Assay” below) is given as “capable of detecting”.
For the molecule `Cc1c2c(c(O)c3c(O)cccc13)C(=O)C1(O)C(O)=C(C(N)=O)C(=O)C(N(C)C)C1C2` (centres unmarked) [AnhydroTc], the MIC worked out at 2 µg/mL (≈ 4.69 µM) in experiment [1], 3 µg/mL (≈ 7.04 µM) in experiment [2] and 2 µg/mL (≈ 4.69 µM) in experiment [3].
For `CN(C)[C@@H]1C(O)=C(C(N)=O)C(=O)[C@@]2(O)C(O)=C3C(=O)c4c(O)ccc(Cl)c4[C@@](C)(O)[C@H]3C[C@@H]12` [ChlorTc, chlortetracycline], the MIC in experiment [1] was determined as 40 µg/mL (≈ 83.5 µM); in experiment [2], 50 µg/mL (≈ 104 µM); in experiment [3], 40 µg/mL (≈ 83.5 µM). The “response in the Tetracycline Assay” value in experiment [4] is “capable of detecting”.
On to `C[C@H]1c2cccc(O)c2C(O)=C2C(=O)[C@]3(O)C(O)=C(C(N)=O)C(=O)[C@@H](N(C)C)[C@@H]3[C@@H](O)[C@@H]21` [DoxyTc, doxycycline], for which the results for the MIC in experiment [1], in experiment [2] and in experiment [3] were 7 µg/mL (≈ 15.8 µM), 40 µg/mL (≈ 90 µM) and 20 µg/mL (≈ 45 µM), respectively. The “response in the Tetracycline Assay” value in experiment [4] was “capable of detecting”.
On the same counts, the results for `CN(C)c1ccc(O)c2c1C[C@H]1C[C@H]3[C@H](N(C)C)C(O)=C(C(N)=O)C(=O)[C@@]3(O)C(O)=C1C2=O` [Minocycline] are 4 µg/mL (≈ 8.74 µM), 14 µg/mL (≈ 30.6 µM), 8 µg/mL (≈ 17.5 µM) and “capable of detecting”.
On to `CO[C@@]12[C@H](COC(N)=O)C3=C(C(=O)C(C)=C(N)C3=O)N1C[C@@H]1N[C@@H]12` [Mitomycin], for which the “β-galactosidase induction in control strain (cI wild type allele)” value in experiment [5] was “inducing β-galactosidase”. In addition, the “Inhibition Assay response” value in experiment [6] is recorded as “-”. Besides, in experiment [4], the “Induction Assay response” value is given as “-” and the “response in the Tetracycline Assay” value is on record as “No β-galactosidase is detected”.
As to `Nc1ccc(S(=O)(=O)Nc2ncccn2)cc1` [Sulfadiazine], the “Inhibition Assay response” value in experiment [6] is “-”. Also, the “Induction Assay response” value in experiment [4] is listed as “-”.
With `Cc1nnc(NS(=O)(=O)c2ccc(N)cc2)s1` [Sulfamethizole], in experiment [6], the “Inhibition Assay response” value is “-”. In addition, in experiment [4] (disc on assay plate), the “Induction Assay response” value was “-”.
As to `Nc1ccc(S(=O)(=O)Nc2nccs2)cc1` [Sulfathiazole], the “Inhibition Assay response” value in experiment [6] was “-”. For the same molecule, the “Induction Assay response” value in experiment [4] (disc on assay plate) is reported as “-”.
In the case of `CC1(C)S[C@@H]2[C@H](NC(=O)[C@H](C(=O)O)c3ccsc3)C(=O)N2[C@H]1C(=O)O` [Ticarcillin], the “Inhibition Assay response” value in experiment [6] is “+”. Moreover, the “Induction Assay response” value in experiment [4] (disc on assay plate) was “+”.
Take `NC[C@H]1O[C@H](O[C@H]2[C@H](O)[C@@H](O[C@H]3O[C@H](CO)[C@@H](O)[C@H](N)[C@H]3O)[C@H](N)C[C@@H]2N)[C@H](N)C[C@@H]1O` [Tobramycin]: in experiment [6], the “Inhibition Assay response” value was “-”. For the same molecule, the “Induction Assay response” value in experiment [4] (disc on assay plate) was “-”.
As for `CN[C@H](CC(C)C)C(=O)N[C@H]1C(=O)N[C@@H](CC(N)=O)C(=O)N[C@H]2C(=O)N[C@H]3C(=O)N[C@H](C(=O)N[C@H](C(=O)O)c4cc(O)cc(O)c4-c4cc3ccc4O)[C@H](O)c3ccc(c(Cl)c3)Oc3cc2cc(c3O[C@@H]2O[C@H](CO)[C@@H](O)[C@H](O)[C@H]2O[C@H]2C[C@](C)(N)[C@H](O)[C@H](C)O2)Oc2ccc(cc2Cl)[C@H]1O` [Vancomycin], the “Inhibition Assay response” value in experiment [6] is given as “-”. In addition, the “Induction Assay response” value in experiment [4] is “±”.
For `C/C(=C/C(=O)N([O-])CCCC1NC(=O)CNC(=O)C(CO)NC(=O)C(CO)NC(=O)C(CCCN([O-])C(=O)/C=C(/C)CC(=O)O)NC(=O)C(CCCN([O-])C(=O)/C=C(\C)CC(=O)O)NC1=O)CC(=O)O.[Fe+3]` (centres unmarked) [ferrichromeA], the “response in the Synergy Assay” value in experiment [7] is recorded as “test positive”. Besides, the “response in the Inhibition Assay” value in experiment [6] is on record as “test positive”.
Turning to `CC(=O)N([O-])CCC[C@@H]1NC(=O)CNC(=O)CNC(=O)CNC(=O)[C@H](CCCN([O-])C(C)=O)NC(=O)[C@H](CCCN([O-])C(C)=O)NC1=O.[Fe+3]` [ferrichrome] (cyclo(GGG[Orn(N5-OH,N5-Ac)][Orn(N5-OH,N5-Ac)][Orn(N5-OH,N5-Ac)])), in experiment [7], the “response in the Synergy Assay” value is reported as “test positive”. For the same molecule, in experiment [6], the “response in the Inhibition Assay” value was “test positive”.
For the molecule `CCCCc1ccc(C(=O)O)nc1` [fusaric acid], the “response in the Synergy Assay” value in experiment [7] is “do not test positive”. Moreover, in experiment [6], the “response in the Inhibition Assay” value is “do not test positive”.
For the molecule `CN(C)C1C(=O)C(C(N)=O)=C(O)C2(O)C(=O)C3=C(O)c4c(O)cccc4C(C)(O)C3C(O)C12` (centres unmarked) [oxyTc], the MIC was 250 µg/mL (≈ 543 µM) in experiment [1], more than 300 µg/mL in experiment [2] and 300 µg/mL (≈ 652 µM) in experiment [3].
Turning to Bacitracin, in experiment [6], the “Inhibition Assay response” value was “-”. The “Induction Assay response” value in experiment [4] (disc on assay plate) is reported as “-”.
On to Colistin, for which, in experiment [6], the “Inhibition Assay response” value is given as “-”. Also, the “Induction Assay response” value in experiment [4] (disc on assay plate) is “-”.
Regarding Gentamicin, in experiment [6], the “Inhibition Assay response” value is “-”. In experiment [4] (disc on assay plate), the “Induction Assay response” value is “-”.
Turning to Polymyxin B, in experiment [6], the “Inhibition Assay response” value was “-”. In addition, the “Induction Assay response” value in experiment [4] (disc on assay plate) is “-”.
With bleomycin, the “β-galactosidase induction in control strain (cI wild type allele)” value in experiment [5] was “inducing β-galactosidase”. For the same molecule, the “response in the Tetracycline Assay” value in experiment [4] is “No β-galactosidase is detected”.
On the same counts, the results for cinodine are “inducing β-galactosidase” and “No β-galactosidase is detected”.
